Results: patent publication US20240016924A1, “NEW ADJUVANT TO IMPROVE THE INNATE IMMUNITY” (INSTITUT NATIONAL DE LA SANTÉ ET DE LA RECHERCHE MÉDICALE, priority 2020, published 2024)

What was measured:
[1] = system: autologous CD4+ T cells; experiment: DC-T co-cultures, CD4+ T cell proliferation (CFSE); format: cell-based, human
Method: Autologous CD4+ T cells were purified from PMBCs by negative selection according to manufacturer instructions (StemCell Technologies, France) (purity>95%)
DCs and confluent ECs were co-cultured overnight as described above, and DC-EC or eduDC was further incubated with P1 (clade B, 125 μM) or medium for 24 h. Then, DCs were separated and incubated with autologous CD4+ T cells pre-labeled with CFSE (Thermo Fisher) according to the manufacturer's instructions, at a ratio of 1:5 (DC/T). After 5 days of culture, CD4+ T cell proliferation was analyzed by flow cytometry as described (Yeh, Yeh et al. 2013, Qin, Yin et al. 2015) using Phytohaemagglutinin (PHA) (5 μg/mL) as positive control.

[2] = system: primary HNECs; experiment: Quantitative RT-PCR for short and long form TSLP, primary HNECs; format: cell-based, human
Method: The expression of short and long form TSLP was quantified as described (Bjerkan, Schreurs et al. 2015, Dong, Hu et al. 2016). Briefly, total RNA was extracted using Trizol. Five hundred nanograms of RNA were treated with ezDNase Enzyme (Thermo Fisher) to remove genomic DNA, and reverse transcribed into cDNA using the kit SuperScript IV VILO Master Mix according to manufacturer instructions (Thermo Fisher). Quantitative PCR was performed using reported primers (Dong, Hu et al. 2016) and the PowerUp SYBR Green Master Mix according to manufacturer instructions (Thermo Fisher). Reactions were performed in triplicates, with glyceraldehyde-3-phosphate dehydrogenase (GAPDH) as the internal control. Amplification, data acquisition, and analysis were carried out using the LightCycler 480 Software (Roche, Mannheim, Germany). The levels of TSLP mRNA were normalized to the levels of GAPDH using the ΔCt method (Schmittgen and Livak 2008) and were presented as 2-ΔCt values.

[3] = system: nasal RPMI cells; experiment: Calcium measurement (Fura-2/AM), nasal RPMI cells; format: cell-based, human; settings: P1 125 μM vs 2511M, controls at 125 μM, n=3
Method: 70-80% confluent RPMI 2650 or HNEC cells in 24-well plate were loaded with […] Fura-2/AM (Molecular Probes) in basal medium without serum/growth factors for 1 hour at 37° C. Cells were washed twice with mammalian saline (Conche, Boulla et al. 2009) and measurements were performed in complete medium supplied with HEPS (10 mM) and CaCl2 (2 mM) as described add (Conche, Boulla et al. 2009). Images were acquired with an inverted fluorescence microscope (Observer Z1, Zeiss, Germany) and analyzed with MetaMorph software (Guichard, Bonilla et al. 2017) Calcium was measured every 5 seconds by video fluorescence imaging. Results were expressed as 340 nm to 380 nm fluorescence ratio and normalized to the baseline, i.e. ratio at time zero was set as 1.

[4] = system: primary human nasal epithelial cells (HNECs); experiment: TSLP secretion in primary human nasal epithelial cells; format: cell-based; settings: GalCer-dependent
Method: Primary human nasal epithelial cells (HNECs, purchased from PromoCell, Heidelberg, Germany) were isolated from nasal septum or adenoids of healthy donors. Cells from two independent donors were obtained. HNECs were cultured in airway epithelial cell basal medium (PromoCell) and supplemented with airway epithelial cell growth SupplementMix (PromoCell) and only cells from passage 2 to 6 were used.
TSLP, IL-25/IL-17E, IL-33, IFN-γ, IL-10, IL-12/23p40, IL-4, IL-5, IL-6, IL-13, TNF-α, MMP-9, IL-8/CXCL8, […], MDC/CCL22, TARC/CCL17, APRIL and BAFF were measured in culture supernatants from indicated experiments with custom multiplex Luminex assays (Bio-techne) according to the manufacturer's instructions. Additionally, when indicated TSLP was measured in culture supernatants by enzyme-linked immunosorbent assay (ELISA) with a limit of detection of 8 pg/ml (Thermo Fisher) according to the manufacturer's instructions.

[5] = system: CD8-depleted PBMCs cocultured with RPMI 2650 cells; experiment: In vitro immunization assay with ovalbumin; format: cell-based, human
Method: In vitro immunization assay was performed as reported (Jung, Matsumoto et al. 2007) with modifications. Briefly, 1×10^6 CD8-depleted PBMCs (Human CD8 Depletion Cocktail, StemCell Technologies, France) were cocultured for 24 hrs with RPMI 2650 cells ([…]) pre-seeded in 48 well plates for 48 hrs. Then, ovalbumin (OVA, EndoFit Ovalbumin, 10 µg/mL, Invivogen) alone, OVA together with P1 (5 μM, 25 μM, 125 μM), OVA together with P1 mutant (P1mut, 125 μM), or medium were added to in RPMI 1640 medium supplemented with Non-Essential Amino Acids (NEAA solution, Thermo Fisher), IL-4 ([…]), IL-2 (10 UI/mL) and 2-mercaptoethanol (20 μM) for 7 days.
For the detection of OVA-specific B cells, at indicated time of culture, PMBCs were surface stained with ovalbumin conjugated to fluorescein (OVA-FITC, 20 ug/mL, Thermo), PE-conjugated mouse anti-human CD20 (BD Biosciences, CA, USA), APC-conjugated goat anti-human IgA or donkey anti-human IgG (Jackson ImmunoResearch, PA, USA) as indicated by the manufacturer. Specific labeling was quantified by flow cytometry with a Guava EasyCyte flow cytometer (Merck-Millipore), and analyzed with the dedicated InCyte software, using the following strategy: CD20+ B cells were first gated and cell double positive for OVA-FITC+ and APC-conjugated anti-IgA or anti-IgG were determined as OVA-IgA or IgG-specific B-cell s.
In vitro immunization assays have been used to produce specific monoclonal antibodies using a defined antigen complemented with an adjuvant (Borrebaeck, Danielsson et al. 1987). Here, we establish a mucosal immunization model adapted from (Jung, Matsumoto et al. 2007, Yeh, Yeh et al. 2013, Wijkhuisen, Savatier et al. 2016) and using mucosal DCs based on our results presented above. OVA was selected as the model antigen. Therefore, human CD8-depleted PBMCs (n=5 independent donors) were cocultured with RPMI 2650 cells for one day to educate DCs, and prior to addition of either medium, OVA, OVA plus P1 mutant (P1mut, 125 μM) or OVA plus P1 (5 μM, 25 μM, 125 μM) for seven more days. OVA-specific B cells were quantified by flow cytometry using FITC-conjugated OVA and anti-CD2O-PE to gate on OVA-specific B cells. The Ig isotype of surface B cell receptor (BCR) was next characterized by APC-conjugated anti-human-IgA or anti-human-IgG. […] Similar results were obtained when B cells were stained with anti-CD19-PE.

## SQNQQEKNEQELLELDKWASLWNWFNITNWLWYIK [P1]
[1]; P1 stimulation on CD4+ T cells alone
  proliferation of CD4+ T cells: has no effect
[1]; peptide-primed eduDCs, 125 μM, 5 days, DC/T 1:5
  proliferation of autologous CD4+ T cells: induced the proliferation of autologous CD4+ T cells
[2]; HNECs, p=0.004, n=6
  increase of lfTSLP transcription compared to unstimulated cells: 5.9 fold
[2]; upon P1 stimulation, primary HNECs
  level of the sfTSLP transcript: remains unchanged
[3]
  extracellular calcium influx (340/380 nm ratio): induces an immediate extracellular calcium influx in a concentration-dependent manner
[4]
  TSLP secretion: induces primary human nasal epithelial cells (HNECs) to secrete TSLP
[5]; OVA plus P1 at 5 μM and 25 μM, 7 days
  induction of OVA-specific B cells: very limited
[5]; OVA plus P1 at 125 μM, 7 days, n=5 donors
  OVA-specific B cells (surface OVA-specific IgA and IgG): significantly enhances OVA recognition by B cells
[5]; absence of nasal epithelial cells during the in vitro immunization
  induction of OVA-specific B cells: not able to induce OVA-specific B cells
[5]; day 7, ELISA
  OVA-specific antibody secretion in culture supernatants: could not be detected by ELISA
